Laboratory results from patent US8598182B2, “Insecticidal pyrimidinyl aryl hyrdrazones” (Dow AgroSciences, LLC., priority 2007, dated 2013).

What was measured:
[1] = test system: Beet Armyworm (Spodoptera exigua); assay: Insecticidal diet-surface test for beet armyworm; assay type: in vivo; conditions: second-instar beet armyworm, 50 ug/cm2 on diet surface, 5 days after treatment, dead insects of 8
Procedure: (§1) The compounds identified in Table 1 were prepared using the procedures illustrated in the foregoing examples, and the compounds were tested against beet armyworm and corn earworm as follows:
(§2) Insecticidal Test for Corn Earworm (Helicoverpa zea) and Beet Armyworm (Spodoptera exigua).
(§3) To prepare test solution, the test compound was formulated at 2000 ppm solution as 4 mg/2 mL of 9 acetone:1 tap water. 50 μL of the 2000 ppm (equivalent to 50 ug/cm^2 dose on diet surface area) test solution was pipetted upon the surface of 1 mL of lepidopteran diet (Southland Multi-Species Lepidopteran Diet) contained in each of eight wells per insect species (one well=1 replication). A second-instar corn earworm and beet armyworm was placed upon the treated diet in each well once the solvent had air-dried. Trays containing the treated diet and larvae were covered and then held in a growth chamber at 25° C., 50-55% RH, and 16 hr light:8 hr dark for 5 days. Observation were conducted 5 days after treatment and infestation. The number of dead insects of 8 per species per treatment was then determined and the results are given in Table 1 as percent control at a dose of […].
(§4) Keys to the table: Mass spectral data were obtained using liquid chromatography mass spectroscopy (LC-MS). The masses are detected using electrospray ionization (ESI) and reported as Mol Ion (M+H, M−H); AVG LAPHEG 50 refers to activity against beet army worm (Spodoptera exigua) as defined above; AVG HELIZE 50 refers to activity against corn ear worm (Helicoverpa zea) as described above.

[2] = test system: Corn Earworm (Helicoverpa zea); assay: Insecticidal diet-surface test for corn earworm; assay type: in vivo; conditions: second-instar corn earworm, 50 ug/cm2 on diet surface, 5 days after treatment, dead insects of 8
Procedure: as §1, §2, §3, §4

| SMILES | LAPHEG 50 (ug/cm2), percent control [1] [%] | HELIZE 50 (ug/cm2), percent control [2] [%] |
| --- | --- | --- |
| Fc1ccc(Nc2cc(Cl)nc(N/N=C/c3ccc(C(F)(F)F)nc3)n2)cc1C(F)(F)F [Compound 68] | 100 | 100 |
| FC(F)C(F)(F)Oc1cccc(Nc2cc(Cl)nc(N/N=C/c3ccc(C(F)(F)F)nc3)n2)c1 [Compound 69] | 75 | 0 |
| Fc1ccc(Nc2cc(Cl)nc(N/N=C/c3ccc(OCC(F)(F)F)nc3)n2)cc1C(F)(F)F [Compound 70] | 100 | 100 |
| FC(F)(F)COc1ccc(/C=N/Nc2nc(Cl)cc(Nc3cccc(Cl)c3)n2)cn1 [Compound 71] | 100 | 100 |
| Fc1ccc(Nc2cc(C(F)(F)F)nc(N/N=C/c3ccc(C(F)(F)F)nc3)n2)cc1C(F)(F)F [Compound 72] | 100 | 100 |
| FC(F)(F)Oc1ccc(/C=N/Nc2ccnc(Nc3ccc(OC(F)(F)F)cc3)n2)cc1 [Compound 73] | 100 | 100 |
| FC(F)(F)Oc1ccc(Nc2nccc(N/N=C/c3ccc(C(F)(F)F)cc3)n2)cc1 [Compound 74] | 100 | 100 |
| Fc1ccc(Nc2nc(Cl)cc(N/N=C/c3ccc(OC(F)(F)F)cc3)n2)cc1C(F)(F)F [Compound 75] | 100 | 100 |
| Fc1ccc(Nc2nc(Cl)cc(N/N=C/c3ccc(OC(F)(F)C(F)F)cc3)n2)cc1C(F)(F)F [Compound 76] | 38 | 25 |
| Fc1ccc(Nc2nccc(N/N=C/c3ccc(OC(F)(F)C(F)F)cc3)n2)cc1C(F)(F)F [Compound 77] | 100 | 100 |
| Fc1ccc(Nc2ncc(F)c(NN=Cc3ccc(OC(F)(F)F)cc3)n2)cc1C(F)(F)F [Compound 78] | 100 | 100 |
| Fc1cnc(Nc2cccc(C(F)(F)F)c2)nc1NN=Cc1ccc(OC(F)(F)F)cc1 [Compound 79] | 100 | 100 |
| Fc1ccc(Nc2ccnc(N/N=C/c3ccc(OC(F)(F)F)cc3)n2)cc1C(F)(F)F [Compound 80] | 100 | 100 |
| Fc1ccc(Nc2cc(N/N=C/c3ccc(OC(F)(F)C(F)F)cc3)nc(NCc3ccc(Cl)nc3)n2)cc1C(F)(F)F [Compound 81] | 0 | 100 |
| Fc1ccc(Nc2nc(Cl)nc(N/N=C/c3ccc(OC(F)(F)F)nc3)c2Cl)cc1C(F)(F)F [Compound 82] | 100 | 100 |
| FC(F)(F)Oc1ccc(/C=N/Nc2cc(Nc3cc(Cl)cc(C(F)(F)F)c3)nc(Cl)n2)cc1 [Compound 83] | 100 | 100 |
| FC(F)C(F)(F)Oc1ccc(/C=N/Nc2cc(Nc3cc(Cl)cc(C(F)(F)F)c3)nc(Cl)n2)cc1 [Compound 84] | 100 | 100 |
| Fc1ccc(Nc2cc(NN=Cc3ccc(OC(F)(F)F)cc3)ncn2)cc1C(F)(F)F [Compound 85] | 100 | 100 |
| Fc1ccc(Nc2cc(N/N=C/c3ccc(C(F)(F)F)nc3)ncn2)cc1C(F)(F)F [Compound 86] | 100 | 100 |
